{
  "source": "patent US6586442B2",
  "about": "“Benzofurane derivatives, their preparation process, their use as medicaments and the pharmaceutical compositions containing them” (priority 1999, dated 2003)",
  "data": [
    {"molecular_target": "human αvβ3 receptor (Homo sapiens, UniProt P05106+P06756)", "sequence (P06756 31-889 limits assumed)": "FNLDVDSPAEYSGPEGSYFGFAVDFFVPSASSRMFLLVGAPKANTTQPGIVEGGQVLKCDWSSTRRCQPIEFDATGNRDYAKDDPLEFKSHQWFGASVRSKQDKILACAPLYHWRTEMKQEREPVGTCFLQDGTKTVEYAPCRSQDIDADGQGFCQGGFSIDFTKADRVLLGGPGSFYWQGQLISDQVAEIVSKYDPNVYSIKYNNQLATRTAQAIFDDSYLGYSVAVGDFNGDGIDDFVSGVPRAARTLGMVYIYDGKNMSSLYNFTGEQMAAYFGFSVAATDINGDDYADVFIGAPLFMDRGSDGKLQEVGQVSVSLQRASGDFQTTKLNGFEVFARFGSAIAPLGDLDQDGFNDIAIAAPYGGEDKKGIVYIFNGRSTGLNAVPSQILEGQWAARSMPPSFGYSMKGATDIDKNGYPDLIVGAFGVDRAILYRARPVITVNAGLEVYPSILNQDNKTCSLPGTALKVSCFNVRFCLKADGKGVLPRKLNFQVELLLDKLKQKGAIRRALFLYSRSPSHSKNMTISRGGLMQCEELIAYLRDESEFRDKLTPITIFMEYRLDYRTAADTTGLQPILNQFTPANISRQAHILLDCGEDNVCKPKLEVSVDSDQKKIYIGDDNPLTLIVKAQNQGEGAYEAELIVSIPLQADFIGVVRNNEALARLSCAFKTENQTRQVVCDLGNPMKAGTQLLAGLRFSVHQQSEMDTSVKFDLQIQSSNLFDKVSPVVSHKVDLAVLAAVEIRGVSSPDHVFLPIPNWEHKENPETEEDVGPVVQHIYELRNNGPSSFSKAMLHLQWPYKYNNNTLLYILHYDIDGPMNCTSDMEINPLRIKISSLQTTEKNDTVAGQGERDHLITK", "sequence (P06756 891-1048 limits assumed)": "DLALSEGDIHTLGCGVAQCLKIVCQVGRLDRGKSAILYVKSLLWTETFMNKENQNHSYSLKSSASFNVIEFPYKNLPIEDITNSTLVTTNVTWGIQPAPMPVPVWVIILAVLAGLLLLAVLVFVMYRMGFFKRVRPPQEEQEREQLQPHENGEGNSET", "sequence (P05106 27-788)": "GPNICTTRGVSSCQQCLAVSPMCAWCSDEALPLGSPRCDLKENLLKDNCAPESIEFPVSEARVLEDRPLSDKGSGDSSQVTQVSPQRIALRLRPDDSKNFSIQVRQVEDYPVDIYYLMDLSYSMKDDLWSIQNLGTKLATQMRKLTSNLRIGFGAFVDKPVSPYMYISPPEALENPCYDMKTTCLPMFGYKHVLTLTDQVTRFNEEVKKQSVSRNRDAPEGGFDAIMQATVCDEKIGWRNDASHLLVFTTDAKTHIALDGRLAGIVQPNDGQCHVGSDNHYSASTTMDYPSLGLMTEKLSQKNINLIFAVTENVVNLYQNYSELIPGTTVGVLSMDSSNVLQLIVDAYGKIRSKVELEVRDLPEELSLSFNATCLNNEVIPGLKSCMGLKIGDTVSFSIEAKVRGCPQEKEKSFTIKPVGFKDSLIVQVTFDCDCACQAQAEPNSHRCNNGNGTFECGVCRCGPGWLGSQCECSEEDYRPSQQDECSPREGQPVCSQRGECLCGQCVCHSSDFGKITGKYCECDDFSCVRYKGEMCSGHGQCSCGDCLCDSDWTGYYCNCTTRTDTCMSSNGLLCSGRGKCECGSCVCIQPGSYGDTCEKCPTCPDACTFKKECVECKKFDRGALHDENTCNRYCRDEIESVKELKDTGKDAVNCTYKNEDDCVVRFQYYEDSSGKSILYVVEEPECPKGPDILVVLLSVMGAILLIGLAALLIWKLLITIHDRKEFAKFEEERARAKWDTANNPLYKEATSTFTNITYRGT", "assay": "Kistrin/Vitronectin Receptor (αvβ3) ELISA test", "format": "binding", "settings": "not given", "experimental": "(§1) Kistrin/Vitronectin Receptor (αvβ3) ELISA Test Protocol:\n(§2) 96-well MaxiSorp plates are coated overnight at […] with 100 μl of Kistrin at 1 μg/ml (dilution in coating buffer: 0.05M (carbonate)/NaOH pH 9.6. The next day, the wells are emptied and the ligands (kistrin) are then fixed (fixation buffers: PBS containing 0.5% BSA (pH=7.4)) for 1 hour at ambient temperature under gentle agitation of 125 rpm. The wells are washed six times (washing buffer: PBS containing 0.05% Tween 20 (pH 7.7) then the following is added per well and in this order:\n(§3) 40 μl of incubation buffer\n(§4) 10 μl of the dilution of the product to be tested (the products are diluted in a 50:50 DMSO/water mixture)\n(§5) 50 μl of human αvβ3 receptor (cf Pytel et al. Methods Enzymol. (1987) 144 (Dilution in incubation buffer, adapted according to the batch of receptor and according to the ligand). The ligand, the αvβ3 receptor and the products to be studied are incubated for 3 hours at ambient temperature with gentle agitation of 125 rpm.\n(§6) The wells are again washed six times, then incubated for 2 hours at ambient temperature with gentle agitation of 125 rpm, in the presence of 100 μl of anti-receptor antibody coupled to a peroxidase (The 4B12-HRP antibody is diluted in incubation buffer (50 mM TRIS pH 7.4; 0.5% BSA; 0.05% Tween 20; 1 mM MnCl2; 50 μM CaCl2; 50 μM MgCl2; 100 mM NaCl). The dilution is to be adapted according to the batch of receptor.\n(§7) The wells are then washed six times before measurement of the ligand-receptor bond is carried out using a peroxidase developer kit (TBM Microwell Peroxidase Substrate System Kirkegaard; Ref cat 50-76-00).\n(§8) This kit contains a flask A of substrate (3,3′,5,5′-tetramethylebenzidine at 0.4 g/l) and a flask B (H2O2 to 0.02% in Citrate/Citric acid). Extemporaneously, one volume of A is mixed with one volume of B, then the reaction mixture is distributed at a rate of 100 μl/wells.\n(§9) The enzymatic reaction develops between 6 to 10 minutes for Kistrin/αvβ3 then its development is stopped by the addition of 100 μl of 1M phosphoric acid. The optical density is determined at 450 nm.\n(§10) Expression of the results\n(§11) The following curve is plotted: the bond percentage as a function of the logarithm of each concentration of the tested product.\n(§12) For each product IC50 is determined according to the following formula: IC50=(B0+Bmin)/2\n(§13) B0=Maximum bond in the absence of any product\n(§14) Bmin=Minimum bond in the presence of the highest concentration of the product.", "units": {"IC50": "nM"}, "values": [
      {"smiles": "CC(C)OC(=O)C(Cc1cc2cc(CCC(=O)NC3=NCCCN3)ccc2o1)NS(=O)(=O)c1cccc2ccccc12", "note": "(centres unmarked) [Example 14]", "IC50": 3700}
    ]},
    {"molecular_target": "human αvβ3 receptor (Homo sapiens, UniProt P05106+P06756)", "assay": "Kistrin/Vitronectin Receptor (αvβ3) ELISA test", "format": "binding", "settings": "Kistrin-coated plates, human αvβ3 receptor, 3 hours at ambient temperature, OD 450 nm; read-out: K/VnR IC50", "experimental": "as §1, §2, §3, §4, §5, §6, §7, §8, §9, §10, §11, §12, §13, §14", "units": {"IC50": "nM"}, "values": [
      {"smiles": "O=C(CCc1ccc2oc(CC(NC(=O)OCc3ccccc3)C(=O)O)cc2c1)NC1=NCCCN1", "note": "(stereo not drawn) [Example 1, 5-[3-oxo-3-[(1,4,5,6-tetrahydro-2-pyrimidinyl)amino)propyl]-α-[[(phenylmethoxy)carbonyl]-amino]-2-benzofuranepropanoic acid]", "IC50": 9},
      {"smiles": "O=C(CCc1ccc2oc(CC(NS(=O)(=O)NCc3ccccc3)C(=O)O)cc2c1)NC1=NCCCN1", "note": "(centres unmarked) [Example 8, Mono(trifluoroacetate) ofα-[[[(phenylmethyl)-amino]sulphonyl]amino]-5-[3-oxo-3-[(1,4,5,6-tetrahydro-2-pyrimidinyl)amino]propyl]-2-benzofuranpropanoic acid]", "IC50": 8.7},
      {"smiles": "CS(=O)(=O)NC(Cc1cc2cc(CCC(=O)NC3=NCCCN3)ccc2o1)C(=O)O", "note": "(centres unmarked) [Example 12]", "IC50": 6.7},
      {"smiles": "CC(C)(C)c1ccc(S(=O)(=O)NC(Cc2cc3cc(CCC(=O)NC4=NCCCN4)ccc3o2)C(=O)O)cc1", "note": "(stereo not drawn) [Example 9, α-[[[4-(1,1-dimethylethyl)phenyl]sulphonyl]amino]-5-(3-oxo-3-[(1,4,5,6-tetrahydro-2-pyrimidinyl)amino]propyl]-2-benzofuranpropanoic acid]", "IC50": 15},
      {"smiles": "O=C(CCc1ccc2oc(CC(NS(=O)(=O)c3cccc4ccccc34)C(=O)O)cc2c1)NC1=NCCCN1", "note": "(stereo not drawn) [Example 13, α-[(1-naphthalenylsulphonyl)amino]-5-[3-oxo-3-[(1,4,5,6-tetrahydro-2-pyrimidinyl)amino]propyl]—2-benzofuranpropanoic acid]", "IC50": 5.5},
      {"smiles": "CC(C)c1ccc(S(=O)(=O)NC(Cc2cc3cc(CCC(=O)NC4=NCCCN4)ccc3o2)C(=O)O)cc1", "note": "(stereo not drawn) [Example 10, α-[[[4-(1-methylethyl)phenyl]sulphonyl]amino]-5-(3-oxo-3-[(1,4,5,6-tetrahydro-2-pyrimidinyl)amino]propyl]-2-benzofuranpropanoic acid]", "IC50": 9.1},
      {"smiles": "O=C(CCc1ccc2oc(CC(NC(=O)OCC34CC5CC(CC(C5)C3)C4)C(=O)O)cc2c1)NC1=NCCCN1", "note": "(stereo not drawn) [Example 5, Mono(trifluoroacetate) of 5-[3-oxo-3-[(1,4,5,6-tetrahydro-2-pyrimidinyl)amino]propyl]-α-[[[(tricyclo[3.3.1.1^3,7]dec-1-yl)methoxy]carbonyl]amino]-2-benzofuranpropanoic acid]", "IC50": 45},
      {"smiles": "O=C(CCc1ccc2oc(CC(NS(=O)(=O)NC(=O)OCC34CC5CC(CC(C5)C3)C4)C(=O)O)cc2c1)NC1=NCCCN1", "note": "(stereo not drawn) [Example 6, 5-[3-oxo-3-[(1,4,5,6-tetrahydro-2-pyrimidinyl)amino]-propyl]-α-[[[[[(tricyclo [2.3.1.1^3,7]dec-1-yl)methoxy]-carbonyl]amino]sulphonyl]amino]-2-benzofuranpropanoic acid]", "IC50": 65},
      {"smiles": "O=C(CCc1ccc2oc(CC(NS(=O)(=O)NC(=O)OCc3ccccc3)C(=O)O)cc2c1)NC1=NCCCN1", "note": "(centres unmarked) [Example 7]", "IC50": 10},
      {"smiles": "CCCS(=O)(=O)NC(Cc1cc2cc(CCC(=O)NC3=NCCCN3)ccc2o1)C(=O)O", "note": "(centres unmarked) [Example 11]", "IC50": 5.7}
    ]}
  ]
}
